We go through four sequences from US10179164B2, “Method for inducing an immune response for treatment of cancer and autoimmune diseases or conditions” (priority 2011, dated 2019).

Assay [1] has as its system collagen induced arthritis (CIA) model in DBA/IJ mice. In words: Collagen induced arthritis (CIA) model, Arthritis Index. It counts as in vivo. As for the experimental part: The following study is of CEL-2000 therapeutic vaccine for collagen induced arthritis (CIA) where the first step was to identify a good animal model for testing the vaccine, which is the collagen induced arthritis (CIA) model in young (6-7) week old male DBA/IJ mice. These mice received 2 injections of bovine collagen the first in complete Freund's adjuvant (CFA) on day 0 and then 3 weeks later on day 21, in Incomplete CFA. After the second collagen injection, the mice were evaluated daily for any joint swelling or redness. Each of the paws was scored on a 4 point scale (Arthritis Index (AI) with respect to the number of digits with symptoms and the thickness of the paw measured, at least 3-4 times a week. Each mouse was weighed weekly.
When significant disease is noted, usually about day 28, the mice are grouped (n=8) with a range of scores between 1 and 6 and group mean of 2.5 to 3. At this point the therapy begins according to protocol. Controls include groups with induced disease but no therapy and groups of healthy mice without induced disease. A therapy control of Enbrel® (3 mg/kg, every other day) was included. Over the 28-day course of study, the outcomes of different CEL-2000 and CEL-2003 treatment schedules were compared with Enbrel. In this study, CEL-200 treatment with 2 doses of 33 or 100 nmol were given subcutaneously on days 0 and 7 or on days 0 and 14. CEL-2003 was used at one dose of […] on days 0 and 14. […] The AI score for each paw (4 paws total) were added for each group and reported on FIG. 4.

A further assay has as its system IL-12p70. Kind of assay: Intracellular IL-12p70 flow cytometry of CD3- bone marrow cells. The format is cell-based, mouse (C57BL/6). The note with it: CD3- BM cells, PE-anti-IL-12p70. An excerpt: CD3+ cells were removed from BM cells using the fluorescence activated cell sorter and then untreated or treated with JgD, gD or JH. Flow cytometric analysis of the sorted population confirmed the removal of CD3 positive cells. The CD3− BM cells were labeled with FIT C-anti-CD8 (Beckman Coulter (clone 53-6.7)), fixed with paraformaldehyde, permeabilized with saponin (Intraprep, Immunotech), labeled with PE-anti-IL-12p70 (Beckman Coulter) and then post fixed with paraformaldehyde prior to immunofluorescence analysis.

Assay [2] has as its system C57BL/6 bone marrow cells (monocyte population). In words: Flow cytometry of CD11c and CD86 expression on peptide-treated bone marrow cells. The settings on record: BM monocyte population by light scatter, second day after treatment; for CD11c expression: PE-anti-CD11c, versus untreated; for CD86 expression: PE-anti-CD86, versus untreated. It counts as cell-based, mouse (C57BL/6). As for the experimental part:
Bone marrow (BM) cells were prepared. Briefly, the femurs and tibias were obtained from five C57BL/6 female mice, and the ends were removed to expose the hollow bone packed with marrow. BM cells were flushed from the bones with cold Hanks Balanced Salt Solution (HBSS) using a sterile disposable 22 g needle and pooled. Red blood cells (RBCs) were lysed using Tris-buffered ammonium chloride and resultant cells were washed 3 times in HBSS, BM cells were suspended in tissue culture medium (TCM) (RPMI 1640 with glutaminic plus […] PenStrep, 50 μM 2-mercaptoethanol, and 5% fetal calf serum) at approximately 5×10^6 cells/ml and incubated for 1 hour at 37° C. in a 5% CO2 atmosphere in plastic tissue culture flasks to remove adherent, mature macrophages. Decanted non-adherent cells were resuspended in TCM and 1.5×10^6 BM cells in 1 ml were placed into each well of a 24 well tissue culture plate (Falcon) and either left untreated or treated with […] of peptide J or JgD LEAPS™ heteroconjugate. After incubation for 48 hrs at 37° C., cells were viewed and photographed for changes in morphology, tissue culture supernatants were removed and the cells were prepared for flow cytometric analysis.
For analysis of CD11c and CD86 expression, untreated and peptide treated BM cells, prepared and treated as described above, were labeled with PE-anti-Cd11c or PE-anti CD86 (Beckman Coulter Fullerton, Calif.) At least […] were analyzed (Altra FACS, Beckman Coulter) using forward and side scatter parameters to limit (gating) the immunofluorescence analysis to cells of the size and granularity of monocytes and dendritic cells.
The monocyte population of BM cells, as defined by light scatter parameters, was analyzed on the second day after treatment with J, gD, JgD or JH.
On the technique in general: A flow cytometer gives signals particle by particle.

For the sequence “DLLKNGERIEKVEGGGTGGKPGIAGFKGEQGPKGEP (Heteroconjugate construct) [CEL-2000, Peptide J linked to the human type II collagen peptide 254-273 through a triglycine linker]”, the “progression of arthritis disease (AI score)” value in assay [1] (100 nmol dose (3x treatment) subcutaneously on days 0 and 7, 28-day study) is “appeared to limit the progression of disease throughout the experimental period”. For the same sequence, in assay [1] (2 doses of 33 or 100 nmol s.c. on days 0 and 7 or 0 and 14 (most regimes), Enbrel 3 mg/kg every other day for 28 days), the “progression of arthritis disease compared with Enbrel” value is given as “at least as good as those of mice treated with Enbrel®”. In addition, the “Student t test comparison of treatment groups with Enbrel” value in assay [1] (days 7, 14 and 21, 3x dose days 0 and 14, 3x days 0 and 7, 1x days 0 and 7 or 0 and 14) is “slightly better than Embrel”.

In the case of “DLLKNGERIEKVE (listed as Homo sapiens) [J-ICBL, ICBL derived from amino acids 38-50 of the β-2-microglobulin chain of the MHC 1 molecule]”, in the assay with IL-12p70, the IL-12p70 expressing cells result is reported as “no significant increase”. In addition, in assay [2], the CD11c expression entry is reported as “no discernible change” and the CD86 expression result was “no discernible change”.

Regarding SLKMADPNRFRGKDLP [gD], in assay [2], the CD11c expression entry is given as “no discernible change” and the CD86 expression result is listed as “no discernible change”.

On to DLLKNGERIEKVEGGGSLKMADPNRFRGKDLP [JgD], for which, in assay [2], the CD11c expression result is reported as “expressed” and the CD86 expression entry is “expressed”.
